“And” between values parts separate entries of the source, which are not always exact repeats. Equal entries are not always repeated.
Experiments:
[1] = test system: T1, platelet GP1bα (Homo sapiens); assay: Platelet pause times and translocation velocities on immobilized A1 under shear flow, parallel-plate flow chamber (Example 1); type: cell-based; conditions: 300 μM peptide incubated with immobilized A1-1261; 66 μM in whole blood and buffer
T1 construct: perfused at low shear to enable platelets to attach to the surface immobilized domains; endogenous in cells; host or cells: platelets in citrated whole blood of healthy donors
T1 sequence (P04275 1261-1471): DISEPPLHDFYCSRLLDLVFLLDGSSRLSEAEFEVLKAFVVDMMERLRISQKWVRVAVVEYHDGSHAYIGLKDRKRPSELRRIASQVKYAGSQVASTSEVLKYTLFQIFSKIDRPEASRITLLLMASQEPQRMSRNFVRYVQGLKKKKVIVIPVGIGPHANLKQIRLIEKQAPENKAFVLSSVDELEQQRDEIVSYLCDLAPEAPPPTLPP
Source text: (§1) To understand the effect of the N-terminal peptide on the function of the A1-domain of vWF, the protein was expressed with (A1-1238) and without the N-terminal peptide (A1-1261). The inventor used a flow chamber to measure the dynamics of platelet interactions with A1-1238 and A1-1261. Each domain variant was immobilized on glass slides with a modified Cu^2+ chelating chemistry that enabled surface capture via the N-terminally fused histidine tag. This method ensured reproducible capture of the proteins eliminating possible structural issues associated with nonspecific immobilization on plastic or glass. The slides were completely inert to platelets. Next, 1 mL of citrated whole blood followed by Tris buffered saline was perfused at low shear to enable platelets to attach to the surface immobilized domains. After red cells were perfused away with buffer, the translocation of the remaining attached platelets over the surfaces was recorded at each shear rate and the velocities and pause times calculated from the coordinate data of each platelet on the surface as described in the methods. […] In addition, the translocation velocities were increased for A1-1238 relative to A1-1261. To determine if this N-terminal sequence could inhibit the catch bond when free in solution, the inventor incubated surface immobilized A1-1261 with excess free peptide and added the free peptide to 1 mL of whole blood and to our perfusion buffer and performed the assay.
(§2) Determination of platelet pause times. Determination of platelet pause times A Glycotech† rectangular parallel-plate flow chamber was mounted to slides with a chelated Cu 21 surface obtained from Microsurfaces Inc. # to which the A1-1261 and A1-1238 domains in TBS were immobilized by the 63His-Tag. Citrated whole blood (1 mL) obtained from informed consent of healthy donors with approval from the Baylor College of Medicine institutional review board followed by buffer was perfused through the chamber at 300s21 for A1-1261 and 700s21 for A1-1238 shear rate to attach platelets to the surface immobilized proteins using a syringe driven variable flow rate pump. The shear was increased incrementally and 1 min movies were recorded at 25 frames/s in phase contrast with 232 pixel binning on a Zeiss Axiocam MRm camera attached to a Zeiss Axio Observer D1 inverted microscope. Tracking analysis was performed using Mediacybernetics ImagePro Premier§. The resulting X-Y coordinate data for each platelet track was differentiated into instantaneous velocities using a Savitzky-Golay algorithm (Savitzky:1964) with a five data point window size and a second-order polynomial implemented into a Mathamatica notebook. These platelet tracks were retained for statistical analysis if the platelet was present for at least 1 s and travelled a total distance greater than 1 lm. Distance travelled in pixels was converted to lm given the camera pixel size=6.45 μm^2, pixel binning, and microscope magnification=400×. Pause times were determined by the amount of time (seconds) a platelets velocity was =0±0.13 μm/s, within the noise. Pause times for all platelet tracks are reported as the mean of the medians. Examples of this analysis for individual platelets and for multiple platelets are provided in the Supporting Information.
(§3) Frame by frame platelet trajectory analysis. Tracking coordinates of individual platelets in units of pixels were exported from ImagePro Premier as a text file and imported into a Mathematica notebook that calculates a Savitzky-Golay first derivative of the total distance traveled over time (Savitzky:1964). The distance was calculated from the X and Y coordinates with the following equation.
(§4) Pause times were determined from the length of time the platelet velocity remained within 0±4 pixel/sec=0.129 μm/sec as illustrated in FIG. 8B. Median pause times were calculated from velocity time profiles for all platelet tracks, stored in a list and translated to histograms for multiple platelets. […]

platelet GP1bα = target: T2, platelet GP1bα (Homo sapiens, UniProt P04275); assay: as above; type: cell-based
T2 construct: perfused at low shear to enable platelets to attach to the surface immobilized domains; endogenous in cells; host or cells: platelets in citrated whole blood of healthy donors
Source text: as §1, §2, §3, §4

A1-1261 = target: T3, A1-1261 (Homo sapiens, UniProt P04275); assay: Binding of free N-terminal peptide to A1-1261 from thermal unfolding enthalpy (tryptophan fluorescence)
T3 construct: A1-1261 (amino acids D1261-P1471); made in house
Source text: This would imply a specific interaction between this N-terminal sequence and the A1 domain when covalently linked in sequence. The only way to examine such a stabilization using spectroscopy was the measurement of thermal unfolding via fluorescence. Since the N-terminal peptide also contains a single tyrosine residue, the excitation wavelength was changed to λ=295 nm in order to measure tryptophan fluorescence and the effect of the peptide on the unfolding of the A1-domain was observed indirectly. Thermal scans of 2 μM A1-1261 were performed as a function of increasing amounts of the N-terminal peptide at 2° Celsius/min. […] Thermal scans were also done in the presence of a peptide with the same amino acid composition, but a scrambled sequence. The inset of FIG. 7A compares the raw fluorescence thermal scans in the presence of 300 μM scrambled and N-terminal peptides. Unfolding in the presence of excess scrambled peptide was equivalent to unfolding in the absence of either peptide. […] Fitting the enthalpy data to a simple single site binding model yields a dissociation constant of ≈46±6 μM.
Prior to all spectroscopic thermal scans, protein samples were equilibrated at 10° Celsius for 15 min to obtain a stable baseline. CD thermal scans between 10 and 95° Celsius were recorded at λ=222 nm using a protein concentration of 1 or 2 μM in a 1 cm quartz cell under moderate stirring. Scan rates were 0.5, 1.0, 1.5 and 2.0° Celsius/min. Integration time for each data point was 20 s with a 1 nm bandwidth. Fluorescence thermal scans between 10 and 95 Celsius were recorded at an emission λ=359 nm after excitation λ=280 nm or λ=295 nm using 2 μM protein in a 1 cm quartz cell with moderate stirring. Scan rates were 0.4 or 0.6, 0.9, 1.6 and 2.0° Celsius/min. At each temperature, relative fluorescence intensity was collected for 4 s and averaged. Thermal scans in the presence of N-terminal peptide at 2.0° Celsius/min were preceded by 1 h incubations at 20° Celsius with 0.02-300 μM peptide.
For the thermal unfolding studies in the presence of peptide, the inventor treated the change in enthalpy of unfolding, ΔHT*^‡ as an observable directly proportional to the degree of binding, X, because the T* was not dependent on peptide concentration.
For the simple single site binding model, A1+P<->A1P, where P is the peptide, the degree of binding is given by
where K is the binding affinity and the free peptide, [P], concentration is given in terms of the total protein, A1T, and peptide, PT, concentrations.

[2] = Far-UV CD spectra, secondary structure content (Example 1); type: physicochemical; conditions: free in solution
Source text: Both proteins show a spectrum dominated by relatively high α-helical content as indicated by the two minima at λ=222 nm and 208 nm. […] By contrast, the spectrum of the N-terminal peptide is dominated by the contribution of random coil-structure and spectrally equivalent to a peptide containing a scrambled sequence but identical amino acid composition.

With “H-QEPGGLVVPPTDAPVSPTTLYVE-OH [N-terminal peptide]” the “Effect of free peptide on platelet pause times on immobilized A1-1261” value [1] was “significant decrease in pause times”, the “Effect of free peptide on platelet translocation velocities on immobilized A1-1261” value (platelet GP1bα; 300 μM peptide incubated with immobilized A1-1261, 66 μM in whole blood and buffer) was “increase in translocation velocities” and the “Effect of free peptide on platelet pause times or translocation velocities on immobilized A1-1238” value (platelet GP1bα; free peptide added) was “did not significantly change the pause times or translocation velocities”. For the same substance, the “Effect of peptide on unfolding enthalpy of A1-1238” value (A1-1261) was “did not change the unfolding enthalpy”, the Kd (A1-1261; single site binding model fit to unfolding enthalpy, 2 μM A1-1261, 2° Celsius/min, read-out: Dissociation constant (KD) of N-terminal peptide binding to A1-1261) was 46 µM and ~46 µM and the “β and random coil content of the sequence” value [2] was greater than 80%.
